These results are taken from ChEMBL document CHEMBL5528002, “Identification of selective 5-LOX and FLAP inhibitors as novel anti-inflammatory agents by ligand-based virtual screening” (Eur J Med Chem, 2024).

Test [1] addresses T1, Polyunsaturated fatty acid 5-lipoxygenase (Homo sapiens) (UniProt P09917).
T1 sequence (whole entry): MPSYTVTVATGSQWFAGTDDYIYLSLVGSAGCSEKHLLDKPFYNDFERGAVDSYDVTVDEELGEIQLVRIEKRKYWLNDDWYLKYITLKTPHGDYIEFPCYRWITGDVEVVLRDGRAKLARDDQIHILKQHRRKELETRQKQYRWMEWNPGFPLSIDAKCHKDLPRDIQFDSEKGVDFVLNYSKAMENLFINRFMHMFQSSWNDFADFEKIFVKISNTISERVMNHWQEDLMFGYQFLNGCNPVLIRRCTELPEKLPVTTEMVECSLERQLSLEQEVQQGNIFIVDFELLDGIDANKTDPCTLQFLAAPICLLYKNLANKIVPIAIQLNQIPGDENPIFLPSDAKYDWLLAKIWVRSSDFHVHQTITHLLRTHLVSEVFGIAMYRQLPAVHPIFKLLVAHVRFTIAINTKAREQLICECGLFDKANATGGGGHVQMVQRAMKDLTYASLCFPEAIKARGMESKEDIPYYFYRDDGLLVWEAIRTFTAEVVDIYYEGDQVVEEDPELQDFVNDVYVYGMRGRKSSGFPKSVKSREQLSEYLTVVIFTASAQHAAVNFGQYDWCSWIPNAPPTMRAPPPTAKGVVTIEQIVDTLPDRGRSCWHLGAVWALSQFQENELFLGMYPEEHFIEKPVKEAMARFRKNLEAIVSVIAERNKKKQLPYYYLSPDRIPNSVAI
As to the kind of experiment: Inhibition of 5-LOX in human Neutrophil assessed as enzyme remaining activity at 30 nM preincubated with compound for 15 mins followed by A23187 addition measured after 10 mins by RP-HPLC analysis relative to control. The class given is cell-based. Conditions: time 25.0 min.

For test [2], the target named is T1, Polyunsaturated fatty acid 5-lipoxygenase (Homo sapiens). In words: Inhibition of 5-LOX in human Neutrophil assessed as enzyme remaining activity at 30 nM using arachidonic acid as substrate preincubated with compound for 15 mins followed by substrate and A23187 addition measured after 10 mins by RP-HPLC analysis relative to control. It is filed as cell-based. Conditions: time 25.0 min.

Test [3] has as its target T2, Prostaglandin E synthase (Homo sapiens) (UniProt O14684).
T2 sequence (whole entry): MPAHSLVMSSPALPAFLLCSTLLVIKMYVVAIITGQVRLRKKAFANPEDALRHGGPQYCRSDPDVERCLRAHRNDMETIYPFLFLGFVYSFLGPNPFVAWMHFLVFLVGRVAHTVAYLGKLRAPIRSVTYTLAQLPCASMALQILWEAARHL
As to the kind of experiment: Inhibition of human mPGES-1 assessed as enzyme remaining activity at 10 uM relative to control.

Test [4] addresses T1, Polyunsaturated fatty acid 5-lipoxygenase (Homo sapiens). In words: Inhibition of human recombinant 5-LOX expressed in Escherichia coli BL21(DE3) assessed as enzyme remaining activity at 10 uM using arachidonic acid as substrate preincubated with compound for 15 mins followed by substrate and CaCl2 addition measured after 10 mins by RP-HPLC analysis relative to control. As to conditions: time 25.0 min.

Test [5] has the same target. As to the kind of experiment: Inhibition of 5-LOX in human Neutrophil assessed as enzyme remaining activity at 10 uM preincubated with compound for 15 mins followed by A23187 addition measured after 10 mins by RP-HPLC analysis relative to control. It is filed as cell-based. As to conditions: time 25.0 min.
Test [6] deals with Neutrophil. As to the kind of experiment: Inhibition of ROS production in PMA-induced human Neutrophil cells at 10 uM incubated for 10 mins by DCFH-DA dye based fluorometric assay. The class given is functional, cell-based.
The target of test [7] is T1, Polyunsaturated fatty acid 5-lipoxygenase (Homo sapiens). In words: Inhibition of 5-LOX in human Neutrophil at 10 uM preincubated with compound for 15 mins followed by A23187 addition measured after 10 mins by RP-HPLC analysis relative to control. The class given is cell-based. As to conditions: time 25.0 min.
Test [8] shares this target. In words: Inhibition of 5-LOX in human Neutrophil assessed as enzyme remaining activity at 10 uM using arachidonic acid as substrate preincubated with compound for 15 mins followed by substrate and A23187 addition measured after 10 mins by RP-HPLC analysis relative to control. Conditions: time 25.0 min. The class given is cell-based.
Test [9] is described as follows: Antioxidant activity assessed as DPPH radical scavenging activity at 10 uM incubated for 30 min by DPPH assay. The class given is functional. On the technique in general: Loss of DPPH colour is used to gauge radical scavenging.
For test [10], the target named is T3, Bifunctional epoxide hydrolase 2 (Homo sapiens) (UniProt P34913).
T3 sequence (whole entry): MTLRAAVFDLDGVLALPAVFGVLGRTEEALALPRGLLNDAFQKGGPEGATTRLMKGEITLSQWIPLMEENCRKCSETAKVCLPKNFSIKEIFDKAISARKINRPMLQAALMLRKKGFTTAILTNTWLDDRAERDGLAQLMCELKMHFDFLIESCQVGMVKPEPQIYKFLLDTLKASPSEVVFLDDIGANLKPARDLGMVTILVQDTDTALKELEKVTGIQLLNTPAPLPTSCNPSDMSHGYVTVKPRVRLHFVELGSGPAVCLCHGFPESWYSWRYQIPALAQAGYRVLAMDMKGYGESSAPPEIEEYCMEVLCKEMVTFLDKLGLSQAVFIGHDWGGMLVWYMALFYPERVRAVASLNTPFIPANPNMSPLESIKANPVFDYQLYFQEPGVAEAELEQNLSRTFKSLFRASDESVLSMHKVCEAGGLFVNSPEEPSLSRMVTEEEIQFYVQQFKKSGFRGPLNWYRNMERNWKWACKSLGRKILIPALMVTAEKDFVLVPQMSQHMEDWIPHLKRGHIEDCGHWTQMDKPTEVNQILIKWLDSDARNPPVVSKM
As to the kind of experiment: Inhibition of human sEH at 10 uM relative to control.

The nature of test [11]: Antioxidant activity assessed as DPPH radical scavenging activity at 1 uM incubated for 30 min by DPPH assay. It is filed as functional.
For test [12], the target named is T4, Polyunsaturated fatty acid 5-lipoxygenase (Homo sapiens, UniProt P09917).
T4 sequence (P09917 whole entry): T1 sequence (whole entry)
As to the kind of experiment: Inhibition of human recombinant 5-LOX expressed in Escherichia coli BL21(DE3) using arachidonic acid as substrate preincubated with compound for 15 mins followed by substrate and CaCl2 addition measured after 10 mins by RP-HPLC analysis.

Test [13] deals with T1, Polyunsaturated fatty acid 5-lipoxygenase (Homo sapiens). In words: Inhibition of 5-LOX in human Neutrophil at 10 uM using arachidonic acid as substrate preincubated with compound for 15 mins followed by substrate and A23187 addition measured after 10 mins by RP-HPLC analysis relative to control. As to conditions: time 25.0 min. It is filed as cell-based.
The target of test [14] is T3, Bifunctional epoxide hydrolase 2 (Homo sapiens). In words: Inhibition of human sEH assessed as enzyme remaining activity at 10 uM relative to control.
The test system of test [15] is Neutrophil. As to the kind of experiment: Inhibition of ROS production in PMA-induced human Neutrophil cells at 1 uM incubated for 10 mins by DCFH-DA dye based fluorometric assay. It is filed as functional, cell-based.
The target in test [16] is T2, Prostaglandin E synthase (Homo sapiens). In words: Inhibition of human mPGES-1 at 10 uM relative to control.
The target of test [17] is T4, Polyunsaturated fatty acid 5-lipoxygenase. In words: Inhibition of 5-LOX in human Neutrophil using arachidonic acid as substrate preincubated with compound for 15 mins followed by substrate and A23187 addition measured after 10 mins by RP-HPLC analysis. The class given is cell-based.

Broadly, the inhibition is the share of the control response that was lost under treatment. One may read the IC50 as the concentration that inhibits the measured activity by half.

Structures are written as SMILES. Active and inactive are the calls of the source. The rule behind the calls is not given here.

Regarding `CC(C)c1ccc2c(c1)c(SC(C)(C)C)c(CC(C)(C)C(=O)O)n2Cc1ccc(Cl)cc1`, the Activity is 1.5% in test [1], 7.8% in [2] and 45.8% in [3].

Take `COC(=O)c1ccc(NCc2cc(O)c3ccccc3c2O)cc1`: the Activity in [4] was 6.1%; in test [5], 3.3%; in test [8], 1.9%; in test [14], 84.4%; in [3], 50.4%. Besides, in test [6], the inhibition result was “Active”. The inhibition in test [7] is above 50%; in test [10] it was above 35%; in test [13], above 50%; in test [16], below 40%. Moreover, the result in test [9] was Active. For the same molecule, in [11], the outcome was inactive. For the same molecule, the concentration for half-maximal inhibition (IC50) in test [12] was 1.1 µM; in test [17], 1 µM. In [15], the inhibition entry was “inactive”.
